Experimental data reported in paper PMC10746543, “Design principles for cyclin K molecular glue degraders” (Nature Chemical Biology, 2023).
“And” between values parts separate entries of the source, which are not always exact repeats. Equal entries are not always repeated. Where two headings read alike, the source gives them in different places.

Assays:
[1] = test system: cyclin K–eGFP degradation reporter; assay: Cyclin K reporter stability analysis (dual-color cyclin K–eGFP reporter); format: cell-based, human; settings: source data sheet correlations; read-out: DC50
Summary of the method: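 Readout: flow-cytometric eGFP/mCherry ratio (geometric means, round mCherry+ gate) relative to the average of three DMSO wells. Reporter line was HEK293T–Cas9, treated 5 h with compound.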

[2] = test system: HEK293T cells; assay: Drug sensitivity assay (CellTiter-Glo viability) with or without MLN4924 pretreatment; format: cell-based, human; settings: Supplementary Table 2; for EC50: Homo sapiens, HEK-293T, HEK293T viability, 72 h, compound alone, read-out: Cellular assays EC50; for Toxicity rescue: MLN4924-mediated cytotoxicity rescue, 10 µM used where n.d.
Summary of the method: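 HEK293T–Cas9, 0.15 × 10^6 ml^−1; pretreat DMSO vs 100 nM MLN4924; drugs dispensed after 2 h; 3 d exposure; CellTiter-Glo; viability vs DMSO control.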

[3] = molecular target: T1, CDK12–cyclin K and DDB1 (Homo sapiens, UniProt Q16531+Q9NYV4, K965R); assay: TR-FRET ternary complex formation assay (compound titration); format: binding; settings: for TR-FRET signal at compound concentration 0.468 nM / TR-FRET signal at compound concentration 2.16 nM / TR-FRET signal at compound concentration 3.6 nM / TR-FRET signal at compound concentration 7.92001 nM / TR-FRET signal at compound concentration 15.84 nM / TR-FRET signal at compound concentration 30.96 nM / TR-FRET signal at compound concentration 62.6401 nM / TR-FRET signal at compound concentration 125.28 nM / TR-FRET signal at compound concentration 244.8 nM / TR-FRET signal at compound concentration 993.601 nM / TR-FRET signal at compound concentration 2001.6 nM: raw titration data
T1 construct: His6–CDK12 (a.a. 713–1,052); full-length or beta-propeller B domain deletion (ΔBPB: a.a. 396–705 deleted) constructs of His6–DDB1ΔBPB, StrepII–Avi–DDB1, or His6–Spy–DDB1; made in house; host or cells: Trichoplusia ni High Five insect cells (baculovirus)
Summary of the method: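 Signal was the ratio of 520 nm to 490 nm fluorescence, measured after a 70 μs delay that reduced background.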

[4] = in vitro complex formation, 50 nM CDK12–cyclin K, 100 nM DDB1, text and figures, read-out: TR-FRET EC50
[5] = sheet MOESM7, read-out: log TR-FRET EC50 (converted)
[6] = source data sheet correlations, read-out: TR-FRET EC50

T1 sequence (Q9NYV4 713-1052 K965R): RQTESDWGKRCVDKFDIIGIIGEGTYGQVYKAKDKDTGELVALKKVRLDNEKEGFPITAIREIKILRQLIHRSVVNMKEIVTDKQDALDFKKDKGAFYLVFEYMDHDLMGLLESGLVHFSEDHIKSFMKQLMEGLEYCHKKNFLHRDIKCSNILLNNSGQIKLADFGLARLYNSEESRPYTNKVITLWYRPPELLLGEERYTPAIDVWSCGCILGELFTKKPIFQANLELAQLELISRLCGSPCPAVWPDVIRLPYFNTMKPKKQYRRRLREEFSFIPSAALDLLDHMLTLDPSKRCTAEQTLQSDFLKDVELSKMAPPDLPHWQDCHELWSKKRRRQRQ
T1 sequence (O75909 1-267 partner): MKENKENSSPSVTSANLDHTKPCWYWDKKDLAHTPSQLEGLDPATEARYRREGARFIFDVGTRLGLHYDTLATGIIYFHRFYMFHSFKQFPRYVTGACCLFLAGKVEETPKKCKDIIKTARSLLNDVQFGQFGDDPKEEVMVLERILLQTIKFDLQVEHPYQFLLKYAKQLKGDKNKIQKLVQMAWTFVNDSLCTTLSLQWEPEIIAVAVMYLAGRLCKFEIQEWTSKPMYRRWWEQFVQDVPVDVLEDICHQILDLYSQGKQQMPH
T1 sequence (Q16531 whole entry): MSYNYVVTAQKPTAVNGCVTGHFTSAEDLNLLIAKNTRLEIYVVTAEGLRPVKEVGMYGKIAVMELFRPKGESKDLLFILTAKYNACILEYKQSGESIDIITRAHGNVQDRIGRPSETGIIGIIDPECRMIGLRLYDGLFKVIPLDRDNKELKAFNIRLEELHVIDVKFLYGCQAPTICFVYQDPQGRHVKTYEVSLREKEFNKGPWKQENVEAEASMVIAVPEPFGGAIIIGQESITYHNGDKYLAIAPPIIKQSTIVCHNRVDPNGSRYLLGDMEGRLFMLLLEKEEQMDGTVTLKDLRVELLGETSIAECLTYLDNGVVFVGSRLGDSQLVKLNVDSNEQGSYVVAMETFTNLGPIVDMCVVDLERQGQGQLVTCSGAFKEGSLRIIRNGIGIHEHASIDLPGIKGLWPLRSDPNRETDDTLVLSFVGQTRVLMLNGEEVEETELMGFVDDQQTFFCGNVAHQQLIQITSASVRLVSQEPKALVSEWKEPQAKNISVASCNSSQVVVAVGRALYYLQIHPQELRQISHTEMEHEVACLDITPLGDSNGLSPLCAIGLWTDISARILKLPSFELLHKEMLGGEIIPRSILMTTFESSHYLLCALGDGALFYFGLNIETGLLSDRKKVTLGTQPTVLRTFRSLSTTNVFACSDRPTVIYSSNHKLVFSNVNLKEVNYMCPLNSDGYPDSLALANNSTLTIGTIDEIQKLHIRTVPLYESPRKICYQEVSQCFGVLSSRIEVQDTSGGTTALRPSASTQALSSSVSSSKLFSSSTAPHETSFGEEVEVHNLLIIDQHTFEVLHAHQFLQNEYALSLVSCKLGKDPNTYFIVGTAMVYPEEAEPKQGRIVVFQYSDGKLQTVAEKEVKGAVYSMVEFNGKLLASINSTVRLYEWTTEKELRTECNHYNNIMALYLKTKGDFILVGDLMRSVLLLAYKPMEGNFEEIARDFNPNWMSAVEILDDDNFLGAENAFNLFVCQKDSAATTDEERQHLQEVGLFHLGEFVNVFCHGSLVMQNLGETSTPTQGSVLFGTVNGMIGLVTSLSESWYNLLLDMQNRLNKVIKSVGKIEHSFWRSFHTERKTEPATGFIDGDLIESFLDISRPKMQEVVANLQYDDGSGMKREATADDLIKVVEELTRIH

Row | DC50 [1] | TR-FRET signal at compound concentration 0.468 nM [3] | TR-FRET signal at compound concentration 2.16 nM [3] | TR-FRET signal at compound concentration 3.6 nM [3] | TR-FRET signal at compound concentration 7.92001 nM [3] | TR-FRET signal at compound concentration 15.84 nM [3] | TR-FRET signal at compound concentration 30.96 nM [3] | TR-FRET signal at compound concentration 62.6401 nM [3] | TR-FRET signal at compound concentration 125.28 nM [3] | TR-FRET signal at compound concentration 244.8 nM [3] | TR-FRET signal at compound concentration 993.601 nM [3] | TR-FRET signal at compound concentration 2001.6 nM [3] | EC50 [3, 4] | EC50 [3, 5] | EC50 [3, 6] | Compound | EC50 [2] | Toxicity rescue [2]
1 | 62 nM | 0.2822 and 0.2969 and 0.203 and 0.2011 | 0.3572 and 0.3626 and 0.2614 and 0.2567 | 0.4873 and 0.5297 and 0.3719 and 0.3575 | 0.7272 and 0.8095 and 0.5738 and 0.5707 | 1.129 and 1.28 and 0.9406 and 0.8919 | 1.72 and 1.9375 and 1.384 and 1.358 | 2.307 and 2.567 and 2.074 and 2.11 | 2.789 and 3.0284 and 2.71 and 2.759 | 3 and 3.3475 and 2.848 and 3.078 | 3.126 and 3.521 and 3.221 and 3.228 | 3.1032 and 3.41 and 3.238 and 3.193 | 36 ± 2 nM | 35.6 nM | 35.6 nM | CC[C@H](CO)Nc1nc(NCc2ccc(-c3ccncc3)cc2)c2ncn(C(C)C)c2n1 [DS44] | 300 nM | 857%
2 | 36 nM | 0.2618 and 0.2852 | 0.3231 and 0.3368 | 0.3927 and 0.4029 | 0.6005 and 0.5751 | 0.9407 and 0.892 | 1.641 and 1.433 | 2.534 and 2.304 | 3.191 and 3.0985 | 3.469 and 3.534 | 3.64 and 3.842 | 3.5487 and 3.801 | 45 ± 2 nM | 45.1 nM | 45.1 nM | CC[C@H](CO)Nc1nc(NCc2ccc(-c3cccnc3)cc2)c2ncn(C(C)C)c2n1 [DS45] | 242 nM | 1302%
3 | 366 nM | 0.2749 and 0.2901 | 0.3467 and 0.3488 | 0.4769 and 0.4631 | 0.7379 and 0.6676 | 1.149 and 0.9938 | 1.778 and 1.5795 | 2.574 and 2.417 | 3.287 and 3.206 | 3.511 and 3.701 | 3.896 and 4.02 | 3.877 and 4.06 | 46 ± 2 nM | 46 nM | 46 nM | CC(C)n1cnc2c(NCc3ccc(-c4ccccn4)cc3)nc(NCc3c(Cl)cncc3Cl)nc21 [DS48] | 907 nM | 313%
